Entries after “also recorded” stand apart in the source; their conditions may differ.

Results on four compounds are retold here after patent publication US20260315477A1, “THERAPEUTIC APPROACH TO BLOCK TERMINAL EXHAUSTION OF T CELLS AND SYNERGIZETHE EFFICACY OF T CELL IMMUNOTHERAPIES” (priority 2023, published 2026).

Data set [1] has as its system dysfunctional human CD8 T cells. The data set is described as follows: In vitro model of human CD8 T cell dysfunction (chronic TCR plus TGFβ1 stimulation, day 28): effector functions, polyfunctionality, memory programs. Particulars: for effector functions of human TEX cells: FIGS. 49A-49E. It counts as cell-based.
Data set [2] concerns AML cells. The data set can be described thus: Tumor-killing activity of treated dysfunctional human CD8 T cells (coculture with AML cells, 18 hr). It counts as cell-based. Particulars: with TGFβ1 blockade (TGFBR1 blocker); 25 μM GSK467; days 14-28.
Data set [3] deals with TBX21 locus. The data set is described as follows: DNA methylation at dysfunction-associated differentially methylated region, targeted Oxford Nanopore assay. Type of data set: cell-based, human. The note with it: GSK467 with or without TGFBR1 inhibitor (Repsox). The protocol:
To determine whether targeting H3K4 demethylation can reduce de novo DNA methylation programs at the effector function-related genes in human CD8 T cells, the changes in DNA methylation levels were assessed at the dysfunction-associated differentially methylated region in dysfunctional human CD8 T cells after GSK467 (KDM5A/B inhibitor) with or without TGFBR1 inhibitor (Repsox) treatment.

In data set [4] the test system is B16-F10-GP33 melanoma cells. The data set is described as follows: In vitro tumor cell death of B16 melanoma cells. It counts as cell-based. The note with it: 24, 48 and 72 hours, different doses. From the text: Ordinary two-way ANOVA test, Dunnett's test. Error bars indicate SEM. N=4 replica of 2 independent experiments.
For data set [5], the system named is virus-specific exhausted CD8 T cells. Type of data set: in vivo, mouse.
Data set [6] deals with B16-F10 melanoma. The data set is described as follows: B16-F10 melanoma model. Type of data set: in vivo, mouse. The note with it: 5 mg/Kg, every 2 days i.p. An excerpt:
(§1) Targeting KDM5B in melanoma cells leads to enhanced tumor rejection by derepressing the expression of endogenous retroviral elements in tumor cells and reducing immune evasion of tumor cells. These findings provide a strong rationale for testing the in vivo efficacy of a selective KDM5A/B inhibitor as an adjunctive treatment to ICB therapy in ICB-refractory tumors. Discussed herein is whether the pharmacological inhibition of KDM5A/B recovers the responses of anti-tumor CD8 T cells to ICB treatment during solid tumors. Utilized herein are two tumor models known to be refractory to PD-1/PD-L1 blockade therapy, including orthotopic OVA-expressing PyMT breast adenocarcinoma and GP33-expressing B16-F10 melanoma in C57BL/6 animals. One week following the adoptive transfer of Thy1.1+TCR-transgenic CD8 T cells (OVA-specific OT-I or GP33-specific P14 cells) into tumor-bearing animals, mono- or combined therapy using KDM5A/Bi plus anti-PD-L 1 treatment was started (FIG. 25A-25B). Changes in tumor growth was tracked and measure the quantity, phenotype, proliferative potential, and functional capacity of adoptively transferred anti-tumor CD8 T cells measured within tumors and draining lymph nodes using spectral cytometry as described herein. […]

Data set [7] relates to CT2A-gp33 glioma. The data set is described as follows: CT2A-gp33 glioma model. Type of data set: in vivo, mouse. Particulars: combined with PD-L1 blockade; CD8-KO or Rag1-KO animals, P14 CD8 T cells transferred.
The subject of data set [8] is tumor-specific CD8 T cells. The data set is described as follows: Tumor-infiltrating lymphocyte analysis in CT2A-gp33 glioma model. The note with it: combined with PD-L1 blockade. It counts as in vivo, mouse. Here is the method:
CT2A-gp33 Glioma Model: The efficacy of GSK467 therapy was tested using CT2A-gp33 glioma model with gp33-specific P14 CD8 T cells adoptively transferred on day 17-20. […] (FIGS. 38A-38C)

The test system of data set [9] is PyMT-OVA breast adenocarcinoma. The data set can be described thus: Orthotopic breast cancer model (PyMT-OVA breast adenocarcinoma). Type of data set: in vivo, mouse. Particulars: combined with PD-L1 blockade, compared to PD-L1 blockade only.
Text: FIGS. 16A-16C show therapeutic blockade of KDM5A and KDM5B boosts the responses of anti-tumor CD8 T cells to ICB therapy.
as §1

Data set [10] deals with Tprog, Tcyto and Tterm CD8 T cells. Particulars: mouse, in vivo.
The subject of data set [11] is P14 CD8 T cells. The note with it: mouse, in vivo.
Data set [12] addresses KDM5A and KDM5B. The note with it: cited from earlier work.
The subject of data set [13] is KDM6. The note with it: cited from earlier work.
Data set [14] has as its system other Jumonji family members. The note with it: cited from earlier work.
The conditions of data set [15]: cited from earlier work.
Data set [16] has as its system TEX cells. Particulars: cited from earlier work.
Data set [17] relates to other immune cells. Particulars: cited from earlier work.
Data set [18] relates to myeloma cells. The note with it: cited from earlier work.
For data set [19], the system named is H3K4me3. Particulars: myeloma cells; cited from earlier work.
Where [20] appears, read: either GSK467 or C70, C70 25 μM, days 14-28.

In general, Ki refers to the dissociation constant of the complex between target and ligand, obtained from inhibition or displacement. By IC50 is commonly meant the concentration that gives 50% inhibition. As to `O=c1nc(Oc2cnn(Cc3ccccc3)c2)[nH]c2cnccc12` [GSK467], the “effector functions of human TEX cells” value in [1] was “enhances effector functions of human TEX cells”. Besides, the “polyfunctionality and memory expression programs” value in data set [1] (setting [20]) is “significantly enhanced polyfunctionality and memory expression programs”. Moreover, in data set [1] (in vitro, direct effects on CD8 T cells), the “cytolytic activity and effector functions of dysfunctional human T cells” value was “enhances the cytolytic activity and effector functions of dysfunctional human T cells”. Moreover, the “effector and memory programs in dysfunctional human CD8 T cells” value in data set [1] (late treatment) is “can recover effector and memory programs”. Moreover, the “effector cytokine secretion and expression of memory-related transcription factors” value in data set [1] (monotherapy, 25 μM GSK467, days 14-28) was “significantly restored effector cytokine secretion and expression of memory-related transcription factors”. Moreover, the “polyfunctionality and memory expression programs” value in data set [1] (with TGFβ1 blockade (TGFBR1 blocker), 25 μM GSK467, days 14-28) was “further potentiated the reactivation of polyfunctionality and memory expression programs”. Also, the tumor-killing activity entry in data set [2] is reported as “augmented tumor-killing activity”. For the same compound, in data set [3], the “acquisition of de novo DNA methylation marks at the TBX21 locus” value is listed as “significantly reduced the acquisition of de novo DNA methylation marks at the TBX21 locus”. In [4], the “tumor cell death, frequencies of dead B16 melanoma cells” value is recorded as “increases B16 melanoma tumor death in vitro”. Moreover, in data set [5] (mouse, in vivo), the “expansion of IFNG-secreting virus-specific CD8 T cells” value is “significant expansion of both Tprog and Tcyto cells, as well as IFNG-secreting virus-specific CD8 T cells”; the “expansion of Tprog and Tcyto cells” value is “significant expansion of both Tprog and Tcyto cells”; the “responses of virus-specific exhausted CD8 T cells to PD-L1 blockade” value was “enhanced the responses of virus-specific TEX cells to PD-L1 blockade; also recorded: enhanced the responses of virus-specific exhausted CD8 T cells to PD-L1 blockade”. Also, the “TEX cell responses to ICB during chronic LCMV infection” value in data set [5] (with anti-PD-L1 (FIGS. 7A-7E)) was “enhances TEX responses to ICB”. Moreover, in [6] (combination with PD-L1 blockade, days 12-20), the “tumor control, combination” value is “further potentiated with combination PD-L1 blockade therapy”. The tumor control entry in data set [6] (monotherapy, days 12-20 post-tumor inoculation) is reported as “significant tumor control”. Moreover, in [7], the tumor control result was “significant tumor control”. In data set [8], the “frequencies of IFNG-secreting tumor-specific CD8 T cells” value is recorded as “increased frequencies of IFNG-secreting tumor-specific CD8 T cells” and the “quantities of tumor-specific CD8 T cells” value was “significant increase in the quantities of tumor-specific CD8 T cells”. Further, the breast tumor control entry in data set [9] is recorded as “significant breast tumor control”. Further, in data set [10], the “development of Tterm cells” value is “impeding the development of Tterm cells” and the “quantity of Tcyto cells” value was “increased the quantity of Tcyto cells”. Also, the “proliferation response and long-lived memory function after ICB treatment” value in data set [11] was “synergized their proliferation response and promote long-lived memory function after ICB treatment”. In [12] (role: inhibitor, stated for KDM5A and KDM5B together), the Ki is 0.01 µM. Moreover, the half-inhibitory concentration (IC50) in [12] (stated for KDM5A and KDM5B together) was 0.026 µM. Besides, in [13], the “inhibitory effects toward KDM6” value is recorded as “no measurable inhibitory effects”. For the same compound, the “inhibitory effects toward other Jumonji family members” value in data set [14] was “no measurable inhibitory effects”. In [15], the “cell penetration / permeability” value was “cell penetrant”.

For the compound `Cc1cccc(-c2[nH]ncc2-c2ccc3ncccc3n2)n1` [TGFBR1 blocker], in data set [1] (TGFβ1 blockade alone, days 14-28), the “effector functions of chronically stimulated CD8 T cells” value is “recovered effector functions of chronically stimulated CD8 T cells”.

On to `Nc1ncn([C@H]2C[C@H](O)[C@@H](CO)O2)c(=O)n1` [decitabine], for which the “response of TEX cells, with ICB therapy” value in data set [16] is recorded as “synergizes with ICB therapy to rescue the response of TEX cells”. Moreover, in data set [17], the “cytotoxicity and adverse effects” value was “highly cytotoxic drug that has adverse effects on other immune cells”; the selectivity entry is “non-selective”.

As to `CCOC(=O)c1ccnc(CNCC(=O)N(CC)CCN(C)C)c1` [C70], the “effector functions of human TEX cells” value in data set [1] is “enhances effector functions of human TEX cells”. The “polyfunctionality and memory expression programs” value in data set [1] (setting [20]) is “significantly enhanced polyfunctionality and memory expression programs”. In addition, the “KDM5A and KDM5B histone demethylase inhibition” value in data set [12] is “potent”. The “cell penetration / permeability” value in data set [15] is listed as “cell-permeable”. Besides, the antiproliferative effect entry in data set [18] is listed as “antiproliferative effect”. Besides, the H3K4me3 levels entry in data set [19] is reported as “genome-wide elevation of H3K4me3 levels”.
